Experimental data as given in paper PMC11930985 (Nature Communications, 2025).
Values joined by “and” are separate entries in the source; they are usually repeats but may differ in a detail not shown here. Identical values can stand only once.

Molecular target: T1, pAXL (Homo sapiens, UniProt P30530)
T1 construct: AML blasts were identified within the peripheral blood mononuclear cell population by CyTOF; endogenous in cells
T1 sequence (P30530 26-894): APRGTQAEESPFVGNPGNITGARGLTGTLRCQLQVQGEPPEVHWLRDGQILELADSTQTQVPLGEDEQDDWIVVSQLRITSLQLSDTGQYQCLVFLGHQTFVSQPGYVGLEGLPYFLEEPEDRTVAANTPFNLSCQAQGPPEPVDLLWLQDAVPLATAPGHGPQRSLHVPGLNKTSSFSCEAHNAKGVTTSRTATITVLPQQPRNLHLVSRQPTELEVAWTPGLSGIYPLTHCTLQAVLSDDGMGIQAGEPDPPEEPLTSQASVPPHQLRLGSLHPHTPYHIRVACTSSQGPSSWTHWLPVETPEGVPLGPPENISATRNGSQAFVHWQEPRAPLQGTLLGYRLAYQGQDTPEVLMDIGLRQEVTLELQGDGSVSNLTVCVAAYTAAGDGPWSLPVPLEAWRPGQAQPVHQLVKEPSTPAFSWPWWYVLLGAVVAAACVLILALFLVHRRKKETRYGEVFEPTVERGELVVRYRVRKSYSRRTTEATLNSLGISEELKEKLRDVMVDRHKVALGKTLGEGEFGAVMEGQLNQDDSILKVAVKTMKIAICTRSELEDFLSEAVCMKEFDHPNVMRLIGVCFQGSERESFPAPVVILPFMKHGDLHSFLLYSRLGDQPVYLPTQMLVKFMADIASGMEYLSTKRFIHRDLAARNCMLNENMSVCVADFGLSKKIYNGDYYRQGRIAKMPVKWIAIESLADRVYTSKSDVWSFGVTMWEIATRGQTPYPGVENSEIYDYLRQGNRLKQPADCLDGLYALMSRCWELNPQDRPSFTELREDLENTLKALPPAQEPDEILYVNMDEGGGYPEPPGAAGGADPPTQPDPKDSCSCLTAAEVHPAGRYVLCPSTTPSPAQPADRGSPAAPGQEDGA
Assay: CyTOF maximal pAXL inhibition in AML blasts vs bemcentinib concentration
Assay type: in vivo
Excerpt: Pharmacodynamic endpoints included the measurement of inhibition of pAXL, pERK, pAKT, pS6 and pSTAT1/3/5 in blast cells (defined as cells with abnormal surface marker expression as compared to healthy donor peripheral blood mononuclear cells and undefined/immature myeloid cells (defined as cells carrying myeloid markers but lacking distinguishing terminal differentiation markers). Mass cytometry time of flight (CyTOF) was used for the determination of the pharmacodynamic markers using a previously validated and tested panel of mass-tagged antibodies[39],[40]. The antibodies in the panel are listed in Supplementary Table 5. Briefly, fixed leukocytes from peripheral blood were barcoded using a 20-plex metal barcoding kit (Standard Biotools, Cell-ID 201060) according to manufacturer’s protocol, allowing all the samples from a single individual to be stained and analysed in parallel. All analysis runs included barcoded peripheral blood mononuclear cells (PBMCs) from at least one healthy donor and an identical barcoded reference sample (mix of PBMCs from six healthy donors). Barcoded cells (approx. 6 × 10^6) were treated with FC receptor block (Octagam, 1:1000 (Octapharma) in MaxPar cell staining buffer (CSB, Standard Biotools 201068), 15 min, room temperature) and treated with heparin (100 IU/mL in CSB, 20 min) to reduce non-specific staining artefacts. The sample was then stained with an optimised mixture of mass-tagged surface antibodies in a total staining volume of 600 μL (30 min, room temperature). Subsequently, the sample was permeabilized with cold (-20 °C) 100 % methanol (15 min, on ice), re-treated with heparin, and stained with a panel of intracellular mass-tagged antibodies (as described above). DNA was labelled with iridium-191/193 by incubation in 0.1 nM Ir-nucleic acid intercalator (Standard Biotools 201192) diluted in MaxPar PBS (Standard biotools 201058) containing 4% PFA overnight at 4 °C. […]
For each population, marker, and sample, the 95th percentile of the non-transformed expression values was calculated. […]

Nc1nc(Nc2ccc3c(c2)CC[C@@H](N2CCCC2)CC3)nn1-c1cc2c(nn1)-c1ccccc1CCC2 [Bemcentinib]
Maximum inhibition (percent) pAXL(Y779) (Figure 4, individual patients (Pt 1-13)): 14.7% and 1.3% and 25.7% and 0.4% and 26.3% and 2.9% and 13.4% and 0% and 16.1% and 15.5% and 11.4% and 7%
Plasma concentrations at which inhibition of pAXL was seen (peripheral blood, DE cohort): 45–347 ng/mL
Time to intracellular phospho-signaling changes vs pre-treatment (peripheral blood, DE cohort): ≤ 4 h
